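48-hour exposure; five concentrations; linearly interpolated endpoints. GI50: concentration for 50% inhibition of growth. TGI: concentration producing complete growth inhibition.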
Assays:
Assay in all cases: NCI-60 cell line screen, 48 h
[1] = system: OVCAR-5 ovarian
[2] = system: HL-60(TB) leukemia
[3] = system: COLO 205 colon
[4] = system: HOP-62 NSCLC
[5] = system: RXF 393 renal
[6] = system: IGROV1 ovarian
[7] = system: UO-31 renal
[8] = system: 786-0 renal
[9] = system: A549 NSCLC
[10] = system: M14 melanoma

Row | SMILES | GI50 [1] | TGI [1] | GI50 [2] | TGI [2] | GI50 [3] | TGI [3] | GI50 [4] | TGI [4] | GI50 [5] | TGI [5] | GI50 [6] | TGI [6] | GI50 [7] | TGI [7] | GI50 [8] | TGI [8] | GI50 [9] | TGI [9] | GI50 [10] | TGI [10]
1 | CN1/C(=C\C=C\C2=[N+](C)c3ccccc3C2(C)C)C(C)(C)c2ccccc21 | 0.37 µM | 15.5 µM | 0.0271 µM | 0.217 µM | 0.0457 µM | 0.257 µM | 0.258 µM | 7.37 µM | 0.216 µM | 1.13 µM | 0.116 µM | 1.74 µM | 0.229 µM | 3.23 µM | 0.251 µM | 5.44 µM | 0.0413 µM | 13.5 µM | 0.223 µM | 1.31 µM
2 | O=C(N/N=C/c1ccccc1O)c1ccccc1 | 2.5 µM | > 100 µM | 2.32 µM | 8.05 µM | 0.75 µM | > 100 µM | 1.61 µM | 8.61 µM | 2.68 µM | 50.9 µM | 1.84 µM | > 100 µM | 1.53 µM | 11.7 µM | 0.339 µM | 1.83 µM | 3.9 µM | > 100 µM | 1.75 µM | 15.3 µM
3 | O=C(Nc1ccc(Cl)c(Cl)c1)NS(=O)(=O)c1cnccc1Oc1ccc(F)cc1 | 6.28 µM | 95.2 µM | 2.12 µM | 7.19 µM | 2.97 µM | 7.59 µM | 6.14 µM | 51.2 µM | 3.8 µM | > 100 µM | 2.69 µM | 8.59 µM | 2.62 µM | 9.51 µM | 4.51 µM | 70.9 µM | 9.92 µM | 52 µM | 5.24 µM | > 100 µM
4 | CCN(C(=O)/C=C/c1ccco1)c1ccccc1 | – | > 100 µM | – | > 100 µM | – | > 100 µM | – | > 100 µM | – | > 100 µM | – | > 100 µM | – | > 100 µM | – | > 100 µM | – | > 100 µM | – | > 100 µM
5 | CSC1=Nc2ccccc2N=C(c2ccc(Cl)cc2)C1 | – | > 100 µM | – | > 100 µM | – | > 100 µM | – | > 100 µM | – | 79.2 µM | – | > 100 µM | – | > 100 µM | – | > 100 µM | – | > 100 µM | – | > 100 µM
6 | O=c1oc2ccc(I)cc2c(=O)n1-c1ccc(Cl)cc1F | 3.96 µM | 74.1 µM | 1.37 µM | 7.51 µM | 4.96 µM | 19.9 µM | 2 µM | 7.42 µM | 1.44 µM | 5.32 µM | 1.19 µM | 21.1 µM | 0.301 µM | 3.24 µM | 3.14 µM | 10.5 µM | 2.87 µM | > 100 µM | 0.598 µM | 7.87 µM
